Experimental findings from ChEMBL document CHEMBL5724914, “Linking interpersonal differences in gut microbiota composition and drug biotransformation activity” (2024) are described below.

Data set [1] can be described thus: The drug is tested on Z-016 corresponding to mouse gut metagenome with ENA study accession number: PRJEB37062 and ENA sample accession number: ERS12561815 for biotransformation under anaerobic condition. The drug concentrations were measured over 9 timepoints collected between 0 and 24 hours of incubation by liquid-chromatography-coupled mass spectrometry (LC–MS). As to conditions: 2 µM.

The conditions of data set [2]: human gut metagenome, 24 h, 2 µM.
For data set [3] the following is noted: human gut metagenome, 24 h, 2 µM. This is another data set of the same source.
Data set [4] can be described thus: The drug is tested on WLS-038 corresponding to human gut metagenome with ENA study accession number: PRJEB37062 and ENA sample accession number: ERS12561745 for biotransformation under anaerobic condition. The drug concentrations were measured over 9 timepoints collected between 0 and 24 hours of incubation by liquid-chromatography-coupled mass spectrometry (LC–MS). As to conditions: 2 µM.

The conditions of data set [5]: human gut metagenome, 24 h, 2 µM. The source holds these as a separate data set.
The nature of data set [6]: The drug is tested on WLS-010 corresponding to human gut metagenome with ENA study accession number: PRJEB37062 and ENA sample accession number: ERS12561743 for biotransformation under anaerobic condition. The drug concentrations were measured over 9 timepoints collected between 0 and 24 hours of incubation by liquid-chromatography-coupled mass spectrometry (LC–MS). As to conditions: 2 µM.

The nature of data set [7]: The drug is tested on WLS-027 corresponding to human gut metagenome with ENA study accession number: PRJEB37062 and ENA sample accession number: ERS12561744 for biotransformation under anaerobic condition. The drug concentrations were measured over 9 timepoints collected between 0 and 24 hours of incubation by liquid-chromatography-coupled mass spectrometry (LC–MS). As to conditions: 2 µM.

Data set [8] can be described thus: The drug is tested on WLS-170 corresponding to human gut metagenome with ENA study accession number: PRJEB37062 and ENA sample accession number: ERS12561762 for biotransformation under anaerobic condition. The drug concentrations were measured over 9 timepoints collected between 0 and 24 hours of incubation by liquid-chromatography-coupled mass spectrometry (LC–MS). As to conditions: 2 µM.

A short description of data set [9]: The drug is tested on Z-006 corresponding to mouse gut metagenome with ENA study accession number: PRJEB37062 and ENA sample accession number: ERS12561806 for biotransformation under anaerobic condition. The drug concentrations were measured over 9 timepoints collected between 0 and 24 hours of incubation by liquid-chromatography-coupled mass spectrometry (LC–MS). As to conditions: 2 µM.

Data set [10] is described as follows: The drug is tested on WLS-220 corresponding to human gut metagenome with ENA study accession number: PRJEB37062 and ENA sample accession number: ERS12561769 for biotransformation under anaerobic condition. The drug concentrations were measured over 9 timepoints collected between 0 and 24 hours of incubation by liquid-chromatography-coupled mass spectrometry (LC–MS). As to conditions: 2 µM.

For data set [11] the following is noted: human gut metagenome, 24 h, 2 µM. This is another data set of the same source.
The conditions of data set [12]: human gut metagenome, 24 h, 2 µM. This is another data set of the same source.
The conditions of data set [13]: human gut metagenome, 24 h, 2 µM. The source holds these as a separate data set.
A short description of data set [14]: The drug is tested on WLS-350 corresponding to human gut metagenome with ENA study accession number: PRJEB37062 and ENA sample accession number: ERS12561789 for biotransformation under anaerobic condition. The drug concentrations were measured over 9 timepoints collected between 0 and 24 hours of incubation by liquid-chromatography-coupled mass spectrometry (LC–MS). As to conditions: 2 µM.

For data set [15] the following is noted: human gut metagenome, 24 h, 2 µM. The source holds these as a separate data set.
For data set [16] the following is noted: human gut metagenome, 24 h, 2 µM. The source holds these as a separate data set.
Data set [17] can be described thus: The drug is tested on Z-021 corresponding to metagenome with ENA study accession number: PRJEB37062 and ENA sample accession number: ERS12561820 for biotransformation under anaerobic condition. The drug concentrations were measured over 9 timepoints collected between 0 and 24 hours of incubation by liquid-chromatography-coupled mass spectrometry (LC–MS). As to conditions: 2 µM.

Data set [18] in a line: The drug is tested on Z-024 corresponding to pig gut metagenome with ENA study accession number: PRJEB37062 and ENA sample accession number: ERS12561823 for biotransformation under anaerobic condition. The drug concentrations were measured over 9 timepoints collected between 0 and 24 hours of incubation by liquid-chromatography-coupled mass spectrometry (LC–MS). As to conditions: 2 µM.

Data set [19] is described as follows: The drug is tested on WLS-073 corresponding to human gut metagenome with ENA study accession number: PRJEB37062 and ENA sample accession number: ERS12561749 for biotransformation under anaerobic condition. The drug concentrations were measured over 9 timepoints collected between 0 and 24 hours of incubation by liquid-chromatography-coupled mass spectrometry (LC–MS). As to conditions: 2 µM.

For data set [20] the following is noted: human gut metagenome, 24 h, 2 µM. The source holds these as a separate data set.
Further: call rule not given here.

Take `Br.COc1ccc2c(c1)[C@]13CCCC[C@@H]1[C@H](C2)N(C)CC3.O` [DEXTROMETHORPHAN HYDROBROMIDE]: the “Bacterial Biotransformation” value in [1] was “Compound NOT metabolized”; in data set [2], “Compound metabolized”; in data set [3], “Compound metabolized”; in data set [4], “Compound NOT metabolized”; in data set [5], “Compound metabolized”; in data set [6], “Compound metabolized”. Further, the “Bacterial Biotransformation” value in data set [7] is given as “Compound metabolized”; in [8], “Compound NOT metabolized”; in [9], “Compound NOT metabolized”; in [10] it was “Compound metabolized”; in data set [11], “Compound NOT metabolized”; in data set [12], “Compound metabolized”. Moreover, the “Bacterial Biotransformation” value in data set [13] is “Compound NOT metabolized”; in [14], “Compound metabolized”; in [15], “Compound metabolized”; in data set [16] it was “Compound NOT metabolized”; in data set [17], “Compound metabolized”; in data set [18], “Compound metabolized”. In addition, the entries for the “Bacterial Biotransformation” value in data set [19] and in [20] were “Compound NOT metabolized” and “Compound metabolized”, respectively.
Regarding `CC#C[C@]1(O)CC[C@H]2[C@@H]3CCC4=CC(=O)CCC4=C3[C@@H](c3ccc(N(C)C)cc3)C[C@@]21C` [MIFEPRISTONE], the “Bacterial Biotransformation” value in [1], in data set [2], in data set [3], in [4], in data set [5] and in data set [6] was “Compound metabolized” in each case. Besides, the “Bacterial Biotransformation” value in [7], in [8], in data set [9], in [10], in data set [11] and in data set [12] was “Compound metabolized” in each case. Moreover, the “Bacterial Biotransformation” value in data set [13] was “Compound NOT metabolized”; in data set [14] it was “Compound NOT metabolized”; in data set [15] it was “Compound metabolized”; in data set [16] it was “Compound NOT metabolized”; in data set [17] it was “Compound NOT metabolized”; in data set [18] it was “Compound metabolized”. Besides, the “Bacterial Biotransformation” value in data set [19] and in [20] was “Compound NOT metabolized” throughout.
On to `CC(=O)OCC(=O)NCCCOc1cccc(CN2CCCCC2)c1` [ROXATIDINE ACETATE], for which the “Bacterial Biotransformation” value in data set [1], in [2], in data set [3], in [4], in data set [5] and in [6] was “Compound metabolized” each time. The “Bacterial Biotransformation” value in data set [9], in [10], in data set [11], in data set [12], in [13] and in data set [14] was “Compound metabolized” each time. Besides, the “Bacterial Biotransformation” value in [15] was “Compound metabolized”; in [16], “Compound metabolized”; in data set [17], “Compound metabolized”; in data set [18], “Compound metabolized”; in [19], “Compound metabolized”; in data set [20], “Compound NOT metabolized”.
In the case of `COC1=C(OC)C(=O)C(CCCCCCCCCCO)=C(C)C1=O` [IDEBENONE], the “Bacterial Biotransformation” value in data set [1], in data set [3], in data set [4], in data set [5], in data set [6] and in data set [7] was “Compound metabolized” throughout. Further, the “Bacterial Biotransformation” value in data set [8] is given as “Compound NOT metabolized”; in data set [9], “Compound metabolized”; in data set [12] it was “Compound NOT metabolized”; in data set [13] it was “Compound metabolized”; in [14], “Compound metabolized”; in data set [15], “Compound NOT metabolized”. In addition, the “Bacterial Biotransformation” value in data set [17] is given as “Compound metabolized”; in data set [18], “Compound metabolized”; in [19] it was “Compound metabolized”; in [20] it was “Compound NOT metabolized”.
Consider `CC(NC(C)(C)C)C(=O)c1cccc(Cl)c1` (configuration not stated) [BUPROPION], for which the “Bacterial Biotransformation” value in data set [1], in [2], in [3], in data set [4], in data set [5] and in [7] was “Compound NOT metabolized” throughout. The “Bacterial Biotransformation” value in data set [8] is “Compound NOT metabolized”; in [9], “Compound NOT metabolized”; in data set [10], “Compound NOT metabolized”; in [11], “Compound metabolized”; in [12], “Compound NOT metabolized”; in data set [13], “Compound NOT metabolized”. Also, the “Bacterial Biotransformation” value in data set [14], in data set [15], in data set [16], in data set [17], in data set [18] and in [19] was “Compound NOT metabolized” throughout. In addition, the “Bacterial Biotransformation” value in data set [20] is given as “Compound NOT metabolized”.
Consider `CN1CCC[C@@H]1CCO[C@](C)(c1ccccc1)c1ccc(Cl)cc1.O=C(O)/C=C/C(=O)O` [CLEMASTINE FUMARATE], for which the “Bacterial Biotransformation” value in data set [1] was “Compound NOT metabolized”; in data set [2], “Compound metabolized”; in [3], “Compound metabolized”; in data set [4], “Compound metabolized”; in data set [5], “Compound NOT metabolized”; in [6] it was “Compound NOT metabolized”. Besides, the “Bacterial Biotransformation” value is reported as “Compound metabolized” in data set [7]; “Compound metabolized” in data set [8]; “Compound NOT metabolized” in [9]; “Compound NOT metabolized” in data set [10]; “Compound metabolized” in data set [12]; “Compound NOT metabolized” in data set [13]. The “Bacterial Biotransformation” value in data set [14] is “Compound metabolized”; in data set [15], “Compound metabolized”; in data set [16], “Compound NOT metabolized”; in data set [17] it was “Compound NOT metabolized”; in [18], “Compound NOT metabolized”; in [19], “Compound NOT metabolized”. In data set [20], the “Bacterial Biotransformation” value is recorded as “Compound NOT metabolized”.
